Results reported in patent US20230110378A1, “MONOBACTAM COMPOUND AND USE THEREOF” (EVOPOINT BIOSCIENCES CO., LTD., priority 2019, published 2023).
Converted amounts (≈) assume the structure as drawn.

Experiments:
[1] = Pharmacokinetic evaluation of compounds in mice (tail vein injection); format: in vivo, Male CD-1 (ICR) mice; conditions: CD-1 (ICR), mouse, male CD-1 mice, intravenous injection, dose 10 mg/kg, plasma; for half-life: read-out: T½ (converted); for Vd: read-out: Vss
Protocol: Male CD-1 (ICR) mice were purchased and then acclimatized in this laboratory for at least 3 days. […] Blood samples were collected from the saphenous vein at 0.0833 h, 0.25 h, 0.5 h, 1 h, 2 h, 4 h, 8 h and 24 h following the tail vein injection administration. The volume of blood collection at each time point of the blood collection was about 30 μL. The blood samples were placed in centrifuge tubes containing anticoagulant EDTA-K2 and centrifuged at 3,200 g at 4° C. for 10 min, and then the upper plasma samples were collected and preserved in a freezer at −70±10° C. for later tests.
1) To 1.5 mL centrifuge tubes were added a 6 μL aliquot of an unknown sample, a standard curve, a quality control, a dilution quality control, single blank and double blank samples.
2) Each sample (except for the double blank sample) was treated with 120 μL of IS1-containing precipitant (the double blank sample was treated with 120 μL of pure MeOH for precipitation), and the mixtures were well mixed (for at least 15 s) using a vortexer and centrifuged at 12,000 g at 4° C. for 15 min.
3) 60 μL of the supernatants were transferred to a 96-well plate and centrifuged at 4° C. at 3220 g for 5 min, and 6 p L of the supernatants were injected for LC-MS/MS quantitative analysis.
1) The 1 h-plasma samples from the 3 mice were diluted 10-fold: 2 p L of the samples were added to 18 p L of blank matrix.
2) The 0.0833 h to 0.5 h-plasma samples from the 3 mice were diluted 100-fold: 18 μL of blank matrix was added to 2 p L of the samples to obtain 10-fold diluted samples. 2 μL of the 10-fold diluted samples were added to 18 p L of blank matrix to obtain 100-fold diluted analysis samples.
LC-MS/MS analysis conditions: chromatography column: ACQUITY UPLC HSS T3 (2.1×50 mm, 1.8 μm); column temperature: 50° C.; mobile phase A: a 0.1% aqueous solution of formic acid; mobile phase B: a 0.1% solution of formic acid in acetonitrile; flowrate: 0.65 mL/min. Internal standard: verapamil (100 ng/mL)
The concentration of the compounds in plasma was measured by LC-MS/MS (LC-MS/MS-AK_Q-Trap 6500). The pharmacokinetic software WinNonlin [version: Phoenix™ WinNonlin®6.3, manufacturer: Pharsight Corporation] was used to calculate pharmacokinetic parameters (V-Noncompartmental model 201).

[2] = tested on: Klebsiella pneumoniae HDBKP 30006; experiment: Minimum inhibitory concentration (broth microdilution, CLSI); format: cell-based; conditions: HDBKP30006
Protocol: (§1) 103 bacterial strains used for the minimum inhibitory concentration test were frozen in a −80° C. ULT freezer and thawed 2 days before use. A small amount of frozen microorganism bacteria were scraped using a sterile inoculating loop, streaked onto a suitable solid culture dish for inoculation, and then cultured for about 20 h at 35 t 2° C. in a normal incubator. • Proteus mirabilis HDBPM 40: MA, normal atmospheric environment • The remaining 102 strains of bacteria: TSA, normal atmospheric environment
(§2) 5-10 colonies with similar morphology were picked from the culture dish using a sterile inoculating loop and then re-streaked onto a corresponding solid culture dish. Then the dish was incubated in a normal incubator at 35 t 2° C. for about 20 h.
(§3) 5-10 single microbial colonies were picked from the solid culture dish, resuspended in 500 μL of sterile normal saline (0.9% NaCl), and adjusted to an OD600 of about 0.15 with a spectrophotometer.
(§4) The bacteria were then diluted 300-fold with 1.02×CAMHB to an inoculation concentration of 2×10^5 CFU/mL.
(§5) • There were a total of 3 assay plate patterns, one of which was used for each assay. • 8 rows of the assay plate (rows A-H) were for 8 test compounds, respectively. The highest test concentration of the compounds was 16, 32 or 64 μg/mL, and each compound was diluted 2-fold. • Growth control (GC): a medium containing microbial inoculum (1.02×CAMHB) and dimethylsulfoxide (DMSO) but no compound.
(§6) The test and reference compounds were dissolved in DMSO or H2O to prepare 6.4 mg/mL stock solutions. The stock solutions were diluted to prepare standby solutions with certain concentrations, and the volumes of the standby solutions were determined according to the experimental design. Corresponding volumes of the standby solutions were transferred to the starting wells of a dilution plate (A1-H1), and half the starting-well volume of DMSO to the other wells. Each compound was diluted 2-fold sequentially from column 1 to column 11 (e.g., transferring 30 μL of DMSO to columns 2-12 first, then pipetting 30 μL of the compounds from column 1 to column 2 and mixing them well, then pipetting 30 μL of the compounds from column 2 to column 3 and mixing them well, then pipetting 30 μL of the compounds from column 3 to column 4 and mixing them well, and so on to column 11).
(§7) 1 or 2 μL of the compounds and DMSO were transferred from the compound plate to corresponding wells of the assay plates.
(§8) 98 μL of corresponding bacterial inocula were added to the assay plates.
(§9) After addition, the assay plates were covered with sterile covers. The mixtures in the assay plates were centrifuged in a centrifuge at 800 rpm for 30 s, mixed well on a microplate shaker at 400 rpm for 1 min, and incubated in a normal incubator at 35 t 2° C. for 20-24 h.
(§10) The assay plates were placed on a plate reading device, and the speculum was adjusted to observe and record the growth condition of bacteria in each well. In the mean time, each assay plate was photographed with QCount system.
(§11) The minimum inhibitory concentration of each compound was recorded by reference to guidelines from the Clinical and Laboratory Standards Institute.
(§12) The minimum inhibitory concentrations of the compounds against experimental strains were tested in this study by reference to the medium microdilution method as indicated by the Clinical and Laboratory Standards Institute. Compounds were diluted two-fold in 96-well plates from the highest detection concentration of 16, 32 or 64 μg/mL. The bacterial inocula in the assay plates were thawed from corresponding medium plates and diluted in 1.02×CAMHB, while growth controls (GC wells) were set up in the assay plates. The minimum inhibitory concentration of each compound against different bacteria was observed and recorded after the assay plates were incubated in a normal incubator at 35 t 2° C. for about 20 h. The minimum inhibitory concentration values for the different compounds are listed in the list below.

[3] = tested on: Enterobacter cloacae HDBECL 30030; experiment: as above; format: cell-based; conditions: HDBECL30030
Protocol: as §1, §2, §3, §4, §5, §6, §7, §8, §9, §10, §11, §12

[4] = tested on: Pseudomonas aeruginosa HDBPA 5679; experiment: as above; format: cell-based; conditions: HDBPA5679
Protocol: as §1, §2, §3, §4, §5, §6, §7, §8, §9, §10, §11, §12

[5] = tested on: Escherichia coli HDBEC 30016; experiment: as above; format: cell-based; conditions: HDBEC30016
Protocol: as §1, §2, §3, §4, §5, §6, §7, §8, §9, §10, §11, §12

[6] = tested on: Escherichia coli HDBEC 30048; experiment: as above; format: cell-based; conditions: HDBEC30048
Protocol: as §1, §2, §3, §4, §5, §6, §7, §8, §9, §10, §11, §12

[7] = tested on: Klebsiella pneumoniae HDBKP 9153; experiment: as above; format: cell-based; conditions: HDBKP9153
Protocol: as §1, §2, §3, §4, §5, §6, §7, §8, §9, §10, §11, §12

[8] = tested on: Escherichia coli HDBEC 30008; experiment: as above; format: cell-based; conditions: HDBEC30008
Protocol: as §1, §2, §3, §4, §5, §6, §7, §8, §9, §10, §11, §12

[9] = tested on: Klebsiella pneumoniae HDBKP 9249; experiment: as above; format: cell-based; conditions: HDBKP9249
Protocol: as §1, §2, §3, §4, §5, §6, §7, §8, §9, §10, §11, §12

[10] = tested on: Proteus mirabilis HDBPM 40; experiment: as above; format: cell-based; conditions: HDBPM40
Protocol: as §1, §2, §3, §4, §5, §6, §7, §8, §9, §10, §11, §12

[11] = tested on: metallo-β-lactamase-expressing Acinetobacter baumannii strain ABA-0003YK; experiment: as above; format: cell-based; conditions: read-out: MIC A. baumannii ABA-0003YK
Protocol: as §1, §2, §3, §4, §5, §6, §7, §8, §9, §10, §11, §12

Row | AUC [1] | clearance [1] | half-life [1] | Vd [1] | MIC [2] | MIC [3] | MIC [4] | MIC [5] | MIC [6] | MIC [7] | MIC [8] | MIC [9] | MIC [10] | SMILES | MIC [11]
1 | 8530 ng·h/mL | 19.5 mL/min/kg | 85.8 min | 0.57 L/kg | < 4 µg/mL | < 4 µg/mL | < 4 µg/mL | < 4 µg/mL | < 4 µg/mL | < 4 µg/mL | < 4 µg/mL | 4 to 8 µg/mL (≈ 4.83 to 9.66 µM) | < 4 µg/mL | CC(C)(O/N=C(\C(=O)N[C@@H]1C(=O)N(S(=O)(=O)O)[C@@H]1CNC(=O)c1cc([C@@H]2CCN(CCNC(=O)c3ccc(O)c(O)c3Cl)C2)no1)c1csc(N)n1)C(=O)O [Compound I-35] | –
2 | 17300 ng·h/mL | 9.61 mL/min/kg | 37.8 min | 0.19 L/kg | 8 to 16 µg/mL (≈ 10.1 to 20.1 µM) | < 4 µg/mL | < 4 µg/mL | 4 to 8 µg/mL (≈ 5.03 to 10.1 µM) | < 4 µg/mL | < 4 µg/mL | < 4 µg/mL | 8 to 16 µg/mL (≈ 10.1 to 20.1 µM) | < 4 µg/mL | Cc1c(C(=O)N2CC[C@@H](c3cc(C(=O)NC[C@@H]4[C@H](NC(=O)/C(=N\OC(C)(C)C(=O)O)c5csc(N)n5)C(=O)N4S(=O)(=O)O)on3)C2)n(O)c(C)c(O)c1=O [Compound I-44] | –
3 | 9660 ng·h/mL | 17.3 mL/min/kg | 35.4 min | 0.24 L/kg | 8 to 16 µg/mL (≈ 10.2 to 20.5 µM) | < 4 µg/mL | < 4 µg/mL | < 4 µg/mL | < 4 µg/mL | < 4 µg/mL | < 4 µg/mL | 8 to 16 µg/mL (≈ 10.2 to 20.5 µM) | < 4 µg/mL | Cc1c(O)c(=O)cc(C(=O)N2CC[C@@H](c3cc(C(=O)NC[C@@H]4[C@H](NC(=O)/C(=N\OC(C)(C)C(=O)O)c5csc(N)n5)C(=O)N4S(=O)(=O)O)on3)C2)n1O [Compound I-43] | –

Row | SMILES | AUC [1] | clearance [1] | half-life [1] | Vd [1] | MIC [2] | MIC [3] | MIC [4] | MIC [5] | MIC [6] | MIC [7] | MIC [8] | MIC [9] | MIC [10] | MIC [11]
4 | CC(C)(O/N=C(\C(=O)N[C@@H]1C(=O)N(S(=O)(=O)O)[C@@H]1CNC(=O)c1cc(C2CC[N+](C)(CCNC(=O)c3ccc(O)c(O)c3Cl)C2)no1)c1csc(N)n1)C(=O)O (some centres unmarked) [Compound I-32] | – | – | – | – | 8 to 16 µg/mL | < 4 µg/mL | < 4 µg/mL | 4 to 8 µg/mL | < 4 µg/mL | < 4 µg/mL | < 4 µg/mL | < 4 µg/mL | < 4 µg/mL | < 4 µg/mL
5 | C[n+]1cc(-c2ncc(C(=O)NC[C@@H]3[C@H](NC(=O)/C(=N\OC(C)(C)C(=O)O)c4csc(N)n4)C(=O)N3S(=O)(=O)O)s2)cn1CCCNC(=O)c1ccc(O)c(O)c1Cl [Compound I-33] | – | – | – | – | 8 to 16 µg/mL | < 4 µg/mL | < 4 µg/mL | < 4 µg/mL | < 4 µg/mL | < 4 µg/mL | < 4 µg/mL | 4 to 8 µg/mL | < 4 µg/mL | < 4 µg/mL
